Columns and labels:
[1] = test system: orthotopic, syngeneic tumor; assay: Efficacy of Brush prodrugs in orthotopic, syngeneic tumor (tumor volume, tumor weight, body weight); format: in vivo
Experimental: In FIGS. 5D to 5F, “iBET” refers to OTX-015.
Tumor volumes are calculated after measuring length and width using digital calipers. Tumors were also weighted, and the body weight was measured.

[2] = clinical; cited from earlier work

Cc1sc2c(c1C)C(c1ccc(Cl)cc1)=N[C@@H](CC(=O)Nc1ccc(O)cc1)c1nnc(C)n1-2 [OTX-015]
body weight loss ([1]; tolerated dose 100 mpk BID, PO (FIG. 5C)): minor weight loss | body weight loss ([1]; tolerated doses 5 mpk and 10 mpk (FIG. 5F)): minor weight loss | dose-limiting toxicity: anemia [2]: 91% | dose-limiting toxicity: neutropenia [2]: 51% | dose-limiting toxicity: thrombocytopenia [2]: 96%

From US12414997B2, “Brush prodrugs and uses thereof” (Massachusetts Institute of Technology, priority 2018, dated 2025)
